Results on 35 compounds are retold here after patent US20100137315A1, “Sphingosine Kinase Inhibitors and Methods of Their Use” (APOGEE BIOTECHNOLOGY CORPORATION, priority 2005, published 2010).

In one experiment the target is T1, recombinant human SK (Homo sapiens, UniProt Q9NYA1).
T1 construct: glutathione-S-transferase (GST) (N); made in house; host or cells: bacteria (pGEX vector)
T1 sequence (Q9NYA1 whole entry): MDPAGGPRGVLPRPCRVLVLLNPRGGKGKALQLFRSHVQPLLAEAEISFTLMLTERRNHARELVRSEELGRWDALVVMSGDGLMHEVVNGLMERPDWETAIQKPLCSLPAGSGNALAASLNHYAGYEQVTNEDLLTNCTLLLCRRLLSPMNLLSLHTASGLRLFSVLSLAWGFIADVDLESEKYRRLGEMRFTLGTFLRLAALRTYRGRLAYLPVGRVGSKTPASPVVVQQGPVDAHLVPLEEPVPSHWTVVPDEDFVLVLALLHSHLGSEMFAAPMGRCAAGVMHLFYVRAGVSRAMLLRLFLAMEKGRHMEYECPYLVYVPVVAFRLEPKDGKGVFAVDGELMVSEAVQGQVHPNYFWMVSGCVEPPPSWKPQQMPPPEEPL
Description: Inhibition of recombinant human SK, LC/MS/MS assay. In kind it is biochemical. Conditions: 6 μg/ml compound. As for the experimental part:
An assay for identifying inhibitors of recombinant human SK has been established (French et al., 2003, Cancer Res 63: 5962). cDNA for human SK was subcloned into a pGEX bacterial expression vector, which results in expression of the enzyme as a fusion protein with glutathione-S-transferase, and the fusion protein is then purified on a column of immobilized glutathione. SK activity is measured by incubation of the recombinant SK with [^3H]sphingosine and 1 mM ATP under defined conditions, followed by extraction of the assay mixture with chloroform:methanol under basic conditions. […] Radioactivity in aliquots of the aqueous phase is then quantified as a measure of [^3H]S1P formation. There is a low background level of partitioning of [^3H]sphingosine into the aqueous phase, and addition of the recombinant SK greatly increases the formation of [^3H]S1P.
In an alternate assay procedure, the recombinant human SK was incubated with unlabeled sphingosine and ATP as described above. After 30 minutes, the reactions were terminated by the addition of acetonitrile to directly extract the newly synthesized S1P. The amount of S1P in the samples is then quantified as follows. C17 base D-erythro-sphingosine and C17 S1P are used as internal standards for sphingosine and S1P, respectively. These seventeen-carbon fatty acid-linked sphingolipids are not naturally produced, making these analogs excellent standards. The lipids are then fractionation by High-Performance Liquid Chromatography using a C8-reverse phase column eluted with 1 mM methanolic ammonium formate/2 mM aqueous ammonium formate. A Finnigan LCQ Classic LC-MS/MS is used in the multiple reaction monitoring positive ionization mode to acquire ions at m/z of 300 (precursor ion)→282 (product ion) for sphingosine and 380→264 for S1P. Calibration curves are generated by plotting the peak area ratios of the synthetic standards for each sphingolipid, and used to determine the normalized amounts of sphingosine and S1P in the samples.
Each Compound of this invention was tested for its ability to inhibit recombinant SK using the LC/MS/MS assay described above. Typically, the Compounds were individually dissolved in dimethylsulfoxide and tested at a final concentration of 6 micrograms/ml.
As to `O=C(NCc1ccc(Oc2ccccc2)cc1)c1nc(-c2ccc(Cl)cc2)cs1` [Compound 54, 4-(4-Chloro-phenyl)-thiazole-2-carboxylic Acid 4-phenoxy-benzylamide], the inhibition at 6 µg/mL was determined as 25%.
Same read-out and setting: the value for `O=C(NCc1ccc(-c2ccccc2)cc1)c1nc(-c2ccc(Cl)cc2)cs1` [Compound 55, 4-(4-Chloro-phenyl)-thiazole-2-carboxylic Acid (biphenyl-4-ylmethyl)-amide] was 20%; that for `CC(NC(=O)c1nc(-c2ccc(Cl)cc2)cs1)c1ccc(Cl)cc1` (centres unmarked) [Compound 56, 4-(4-Chloro-phenyl)-thiazole-2-carboxylic Acid [1-(4-chloro-phenyl)-ethyl]-amide] was 81%; that for `CC(C)(C)NCCCNC(=O)c1nc(-c2ccc(Cl)cc2)cs1` [Compound 57, 4-(4-Chloro-phenyl)-thiazole-2-carboxylic Acid (3-tert-butylamino-propyl)-amide] was 16%.
Still for that read-out and setting: the value for `O=C(NCc1ccc(C(F)(F)F)cc1)c1nc(-c2ccc(Cl)cc2)cs1` [Compound 58, 4-(4-Chloro-phenyl)-thiazole-2-carboxylic Acid 4-trifluoromethyl-benzylamide] was 86%.
On the same count and under the same terms, the value for `O=C(NCCCN1CCCC1)c1nc(-c2ccc(Cl)cc2)cs1` [Compound 59, 4-(4-Chloro-phenyl)-thiazole-2-carboxylic Acid (3-pyrrolidin-1-yl-propyl)-amide] was 46%; that for `O=C(NCc1cc(C(F)(F)F)cc(C(F)(F)F)c1)c1nc(-c2ccc(Cl)cc2)cs1` [Compound 60, 4-(4-Chloro-phenyl)-thiazole-2-carboxylic Acid 3,5-bis-trifluoromethyl-benzylamide] was 87%; that for `O=C(NCCc1ccncc1)c1nc(-c2ccc(Cl)cc2)cs1` [Compound 61, 4-(4-Chloro-phenyl)-thiazole-2-carboxylic Acid (2-pyridin-4-yl-ethyl)-amide] was 0%.
As to `O=C(Nc1nnn[nH]1)c1nc(-c2ccc(Cl)cc2)cs1` [Compound 62, 4-(4-Chloro-phenyl)-thiazole-2-carboxylic Acid (1H-tetrazol-5-yl)-amide], the inhibition at 6 µg/mL is 60%.
Still for that read-out and setting: the value for `CS(=O)(=O)c1ccc(CNC(=O)c2nc(-c3ccc(Cl)cc3)cs2)cc1` [Compound 63, 4-(4-Chloro-phenyl)-thiazole-2-carboxylic Acid 4-methanesulfonyl-benzylamide] was 3%.
For the compound `O=C(NCCc1ccc2c(c1)OCO2)c1nc(-c2ccc(Cl)cc2)cs1` [Compound 64, 4-(4-Chloro-phenyl)-thiazole-2-carboxylic Acid (2-benzo[1,3]dioxol-5-yl-ethyl)-amide], the inhibition at 6 µg/mL was found to be 90%.
The same measure, in the same setting: the value for `O=C(Nc1nc(-c2ccc(Cl)cc2)cs1)c1cccc(F)c1` [Compound 65, N-[4-(4-Chloro-phenyl)-thiazol-2-yl]-3-fluoro-benzamide] was 66%; that for `O=C(Nc1nc(-c2ccc(Cl)cc2)cs1)c1ccc(C(F)(F)F)cc1F` [Compound 66, N-[4-(4-Chloro-phenyl)-thiazol-2-yl]-2-fluoro-4-trifluoromethyl-benzamide] was 61%.
Still for that read-out and setting: the value for `O=C(Nc1nc(-c2ccc(Cl)cc2)cs1)c1ccc(F)cc1` [Compound 67, N-[4-(4-Chloro-phenyl)-thiazol-2-yl]-4-fluoro-benzamide] was 41%; that for `O=C(Nc1nc(-c2ccc(Cl)cc2)cs1)c1ccc(Cl)cc1Cl` [Compound 68, 2,4-Dichloro-N-[4-(4-chloro-phenyl)-thiazol-2-yl]-benzamide] was 73%.
The same measure, in the same setting: with `O=C(Nc1nc(-c2ccc(Cl)cc2)cs1)C(Cl)c1ccccc1` (centres unmarked) [Compound 69, 2-Chloro-N-[4-(4-chloro-phenyl)-thiazol-2-yl]-2-phenyl-acetamide] the figure was 55%; with `O=C(Cc1ccc(F)cc1)Nc1nc(-c2ccc(Cl)cc2)cs1` [Compound 70, N-[4-(4-Chloro-phenyl)-thiazol-2-yl]-2-(4-fluoro-phenyl)-acetamide], 54%.
Regarding `O=C(NCc1cc(F)cc(C(F)(F)F)c1)c1nc(-c2ccc(Cl)cc2)cs1` [Compound 75, 4-(4-Chloro-phenyl)-thiazole-2-carboxylic acid 3-fluoro-5-trifluoromethyl-benzylamide], the inhibition at 6 µg/mL was 3%.
The same measure, in the same setting: the value for `O=C(NCCN1CCOCC1)c1nc(-c2ccc(Cl)cc2)cs1` [Compound 76, 4-(4-Chloro-phenyl)-thiazole-2-carboxylic acid (2-morpholin-4-yl-ethyl)-amide] was 51%.
Same read-out and setting: with `Fc1cc(F)cc(OCNc2nc(-c3ccc(Cl)cc3)cs2)c1` [Compound 77, [4-(4-Chloro-phenyl)-thiazol-2-yl]-(3,5-difluoro-phenoxymethyl)-amine] the figure was 85%; with `Fc1ccc(F)c(OCNc2nc(-c3ccc(Cl)cc3)cs2)c1` [Compound 78, [4-(4-Chloro-phenyl)-thiazol-2-yl]-(2,5-difluoro-phenoxymethyl)-amine], 70%.
On the same count and under the same terms, the value for `Fc1cc(F)cc(COCNc2nc(-c3ccc(Cl)cc3)cs2)c1` [Compound 79, [4-(4-Chloro-phenyl)-thiazol-2-yl]-(3,5-difluoro-benzyloxymethyl)-amine] was 53%.

Another experiment concerns MCF-7 human breast adenocarcinoma cells. Description: Cytotoxicity, SRB assay, 48 h. Particulars: Homo sapiens, MCF7; Table 6; 48 h, SRB, inhibition of cell proliferation; read-out: MCF-7 IC50. In kind it is cell-based. As for the experimental part:
To further assess the biological efficacies of the Compounds in intact cells, each Compound was evaluated for cytotoxicity using human cancer cell lines. These experiments followed methods that have been extensively used. Cell lines tested included MCF-7 human breast adenocarcinoma cells. The indicated cell lines were treated with varying doses of the test Compound for 48 h. Cell survival was then determined using the SRB binding assay (Skehan et al., 1990, J Natl Cancer Inst 82: 1107), and the concentration of compound that inhibited proliferation by 50% (the IC50) was calculated. Values (in μM) represent the mean±sd for replicate trials.
For the compound `COc1cc(C=CC(=O)Nc2nc(-c3cccc(Cl)c3)cs2)ccc1O` [Compound 9, N-[4-(3-Chloro-phenyl)-thiazol-2-yl]-3-(4-hydroxy-3-methoxy-phenyl)-acrylamide], the concentration for half-maximal inhibition (IC50) is 7.8 µM.
Still for that read-out and setting: with `CCCC(=O)Oc1ccc(C=CC(=O)Nc2nc(-c3ccc(Cl)cc3)cs2)cc1OC(=O)CCC` [Compound 11, Butyric acid 2-butyryloxy-5-{2-[4-(4-chloro-phenyl)-thiazol-2-ylcarbamoyl]-vinyl}-phenyl ester] the figure was 10 µM; with `CC(=O)Oc1ccc(C=CC(=O)Nc2nc(-c3ccc(Cl)cc3)cs2)cc1` [Compound 12, Acetic acid 4-{2-[4-(4-chloro-phenyl)-thiazol-2-ylcarbamoyl]-vinyl}-phenyl ester], 125 µM.
On to `CCCC(=O)Oc1ccc(CC(=O)Nc2nc(-c3ccc(Cl)cc3)cs2)cc1OC` [Compound 16, Butyric acid 4-{[4-(4-chloro-phenyl)-thiazol-2-ylcarbamoyl]-methyl}-2-methoxy-phenyl ester], for which the concentration for half-maximal inhibition (IC50) was found to be 5.6 µM.
Regarding `CCCC(=O)Oc1ccc(CC(=O)Nc2nc(-c3ccc(Cl)cc3)cs2)cc1OC(=O)CCC` [Compound 17, Butyric acid 2-butyryloxy-5-{[4-(4-chloro-phenyl)-thiazol-2-ylcarbamoyl]-methyl}-phenyl ester], the 50% inhibitory concentration (IC50) is 4 µM.
Still for that read-out and setting: the value for `CCCC(=O)Oc1cc(C=CC(=O)Nc2nc(-c3ccc(Cl)cc3)cs2)ccc1OC` [Compound 18, Butyric acid 5-{2-[4-(4-chloro-phenyl)-thiazol-2-ylcarbamoyl]-vinyl}-2-methoxy-phenyl ester] was 2.7 µM; that for `O=C(Nc1nc2cc(Cl)ccc2o1)c1ccccc1[N+](=O)[O-]` [Compound 87, N-(5-Chloro-benzooxazol-2-yl)-2-nitro-benzamide] was 9.8 µM.
Same read-out and setting: the value for `O=C(C=Cc1ccccc1)Nc1nc2cc(Cl)ccc2o1` [Compound 88, N-(5-Chloro-benzooxazol-2-yl)-3-phenyl-acrylamide] was 1.3 µM; that for `O=C(C=Cc1ccc([N+](=O)[O-])cc1)Nc1nc2cc(Cl)ccc2o1` [Compound 89, N-(5-Chloro-benzooxazol-2-yl)-3-(4-nitro-phenyl)-acrylamide] was 1.2 µM; that for `C=CCCCCCCCCC(=O)Nc1nc2cc(Cl)ccc2o1` [Compound 90, Undec-10-enoic acid (5-chloro-benzooxazol-2-yl)-amide] was 19 µM.
For the compound `CCCCCCCCCCCCCC(=O)Nc1nc2cc(Cl)ccc2o1` [Compound 91, Tetradecanoic Acid (5-chloro-benzooxazol-2-yl)-amide], the IC50 worked out at 2.6 µM.
On the same count and under the same terms, the value for `CCCCCCCCCCCCCCCC(=O)Nc1nc2cc(Cl)ccc2o1` [Compound 92, Hexadecanoic Acid (5-chloro-benzooxazol-2-yl)-amide] was 7.6 µM.

Still in this experiment, the particulars now being: Table 6; 48 h, SRB, inhibition of cell proliferation; read-out: MCF-7 IC50.
As for “4-(4-Chloro-phenyl)-thiazole-2-carboxylic acid (2-pyridin-4-yl)-amide [Compound 74]”, the IC50 stood at 120 µM.

For orientation: inhibition means the drop in the measured response relative to a control, in per cent. As a reminder, the IC50 is the concentration needed to halve the response being measured.
